Several values for one entry are separate records, joined by “and”; a condition that tells them apart may be missing. Identical values can stand only once.
Test system: Staphylococcus aureus strain UNT144-3
Assay: S. aureus pneumonia model (neutropenic murine lung infection)
Type: in vivo, mice
Settings: 100 mg/kg SC at 2 and 6 hrs post-infection; CFU assessed 24 hr
Procedure: The sensitivity of two S. aureus clinical isolates, UNT109-3 (NRS234, native valve endocarditis) and UNT144-3, that have been previously utilized in animal models of infection, was evaluated vs. the individual phage and the 4-phage panel. […] The virulence of the two strains was then evaluated in the murine lung infection model. Female Hsd:ICR(CD-1) mice (Harlan Laboratories, Houston, TX) were administered 150 and 100 mg/kg cyclophosphamide on day −4 and day −1 prior to infection to render them neutropenic. Groups of 5 mice were then anaesthetized by intraperitoneal (IP) injection of 0.15 mL of a mixture of ketamine HCl (100 mg/kg body weight) plus xylazine (10 mg/kg body weight). Once anaesthetized, mice were infected intranasally by placing drops on the external nares and allowing inhalation of the 50 μl inoculum. Twenty-four hours after infection, mice were euthanized by CO2 inhalation and lungs processed for bacterial titers. Bacterial counts were enumerated on Brain Heart Infusion agar (Difco™ Laboratories)+0.5% activated charcoal (Sigma-Aldrich) plates for ease of recovering and detecting S. aureus (Barr, J. G., et al., J. Clin. Pathol. (1987) 40:372-376). […]
Three phage panel treatment groups were evaluated for efficacy: 2×10^10 PFU/mL per phage, 2×10^9 PFU/mL per phage, and 2×10^8 PFU/mL per phage. […]

In the case of CN[C@H](CC(C)C)C(=O)N[C@H]1C(=O)N[C@@H](CC(N)=O)C(=O)N[C@H]2C(=O)N[C@H]3C(=O)N[C@H](C(=O)N[C@H](C(=O)O)c4cc(O)cc(O)c4-c4cc3ccc4O)[C@H](O)c3ccc(c(Cl)c3)Oc3cc2cc(c3O[C@@H]2O[C@H](CO)[C@@H](O)[C@H](O)[C@H]2O[C@H]2C[C@](C)(N)[C@H](O)[C@H](C)O2)Oc2ccc(cc2Cl)[C@H]1O [Vancomycin], the “Mean ± SD log10 CFU/Lung Pair” value is reported as 5.55 log10 CFU/Lung Pair and 5.55 ± 1.1 log10 CFU/Lung Pair.

Source: patent publication US12503687B2, “Therapeutic bacteriophage compositions” (priority 2017, dated 2025)
